The text below walks through data of a melting point compilation (Tetko et al.; mined from patent text by program, amines drawn as free bases though some values may be those of a salt).

The structures appear in SMILES notation.

With `Cc1cc(OC2CCN(C(=O)OC(C)(C)C)CC2)ccc1[N+](=O)[O-]`, the melting point lay in the range of 104 to 106 °C.

`CCCC(O)c1cc(-c2ccc(C(F)(F)F)n(C)c2=O)c(F)cc1Cl` (stereo not given) came in with a melting point of 120 to 122 °C. The molecule `Cn1nnc(-c2cccc(N)c2)n1` came in with a melting point of 97 °C.

As to `BrCc1ccc2ncoc2c1`, the melting point is 52 to 56 °C. The same measure for `O=[N+]([O-])c1cnc(Sc2cncc(Cl)n2)s1`: 108 to 110 °C; for `O=C(NC(Cc1ccc(OCc2ccccc2)cc1)C(=O)O)c1cn2cc(-c3ccccc3F)ccc2n1` (stereo not given): 238 °C. The same measure for `CC(=O)C(=NNc1ccccc1)C(=O)NCc1ccccc1`: 101 to 103 °C; for `N#CCC1(O)CCc2ccccc2C12CCCC2` (stereo not given): 165 to 166 °C. `COCOc1cc(OC)cc(C)c1C(=O)c1ccc(OCc2ccccc2)cc1` returned a melting point of 49 to 50 °C. In the case of `COC(=O)c1ncc(Nc2cc(C)[nH]n2)nc1Nc1ccc(Cl)cc1`, the melting point was 259 to 261 °C. The same measure for `CC1Sc2c(C(=O)O)c(=O)c3cc(F)c(N4CCN(C)CC4)c(F)c3n21` (stereo not given): 238 °C; for `CC(=O)C1CNCc2c1[nH]c1cnc3ccccc3c21` (stereo not given): 218 to 221 °C; for `COc1cc2c(c3c1OC(C)(C)C3)C(c1ccc(=O)n(Cc3ccc(C(N)=O)cc3)c1)=NC(C)(C)C2`: 262 to 266 °C. The same measure for `Nc1ccc(Oc2ccc(Oc3ccc(S(=O)(=O)c4ccc(Oc5ccc(Oc6ccc(N)cc6)cc5)cc4)cc3)cc2)cc1`: 212 to 214 °C; for `COc1ccc(CC(=O)NC(NC(=NC#N)Nc2cccnc2OC)C(C)(Cl)Cl)cc1OC` (stereo not given): 188 to 190 °C. The same measure for `NOP(=O)(c1ccccc1)c1ccccc1`: 104 °C. For `CC(C)(C)Oc1nc2cc(F)c([N+](=O)[O-])cc2nc1Cl`, the melting point was in the range of 141 to 143 °C. The molecule `CN1C(=O)CC[C@]2(C)c3ccc(-c4cc5ccccc5s4)cc3CC[C@@H]12` registered a melting point of 247 to 250 °C. The same measure for `Cc1c(NC(=O)c2cc3c(s2)CCCC3)cccc1-c1cn(C)c(=O)c(Nc2ccc([C@@H](C(=O)N(C)C)N(C)C(C)C)cc2)n1`: 133 to 134 °C; for `CC(C)(C)OC(=O)NC1CC=CC1`: 68 to 70 °C. The same measure for `CCCCCCCCCCCCCCc1ccc(CCCCCC)c(O)c1`: 43 to 45 °C. The same measure for `COc1ccc2c(c1)CCN(Cc1c[nH]c3ncccc13)C2`: 144 to 146 °C. The molecule `N#CC1CC(=O)c2cc(F)ccc2O1` (stereo not given) returned a melting point of 87 to 89 °C.

Take `O=C(OC1CCCCC1)c1ccc(Cl)c([N+](=O)[O-])c1`: the melting point lay in the range of 57 to 58 °C. Molecule `Cc1cc(C(c2cc(C)sc2C)c2cc(C)sc2C)c(C)s1` showed a melting point of 143 to 144 °C.

In turn, `CC(C)(C)NC(=O)c1ccc(I)cc1` had a melting point of 149 to 150 °C. Turning to `CCN(c1cccc2cc(C(N)=S)[nH]c12)S(=O)(=O)c1cccs1`, the melting point stood at 163 °C. Take `COc1ccc(C(=O)Nc2cc(NC(=O)c3cccc(N)c3)ccc2C)cc1OC`: the melting point lay in the range of 179 to 180 °C.

Consider `COCCOc1cc2c(Nc3ccc(Sc4nccn4C)c(Cl)c3)c(C#N)cnc2cc1OCCCN(C)C`, for which the melting point was in the range of 194 to 203 °C. The same measure for `CC(=O)c1ccccc1NC(C#N)c1c(Cl)cccc1Cl` (stereo not given): 179 °C.

For `CCCOc1ccc(S(N)(=O)=O)cc1C1=NC(=O)C2=NC=NC2=N1`, the melting point was 276 to 278 °C.

As for `CC1CCc2c(N3CCC(N(C)C)CC3)c(F)cc3c(=O)c(C(=O)O)cn1c23` (stereo not given), the melting point was in the range of 259 to 261 °C.

Molecule `O=C1COCC2=C1C(c1ccc(F)c(Br)c1)C1=C(COC1=O)N2` (stereo not given) gave a melting point of 166 to 168 °C. The same measure for `COc1ccc(S(=O)(=O)Nc2ccccc2NC(=O)c2ccncc2C)cc1`: 194 to 195 °C; for `CC(C)(C)C(O)(COC1CCCCO1)Cn1ccnc1` (stereo not given): 107 °C; for `NS(=O)(=O)c1cccc2c1CC(=O)CC2`: 173 to 175 °C. The same measure for `CC(NC(=O)Oc1cccc2c1C1(C)CCN(C)C1N2C)c1ccccc1` (stereo not given): 151 to 155 °C; for `O=C(O)Cc1ccccc1Cc1nc2c(F)c(F)cc(F)c2s1`: 124 to 126 °C; for `CC(C)N1CC2CC(CN(C(=O)c3ccc(Cl)cc3)C2)C1`: 97 to 98 °C. In turn, `O=C(NCc1cccnc1)c1ccc(OCc2ccc3ccccc3n2)cc1C1(c2ccccc2)CC2CCC1C2` (stereo not given) yielded a melting point of 179 to 181 °C.

As for `COc1cccc(O)c1-c1ccc(C[C@H](NC(=O)c2c(Cl)cccc2Cl)C(=O)O)cc1`, the melting point amounted to 224 °C. As for `N#Cc1ccc(N2CCCCO2)c2ccccc12`, the melting point lay in the range of 111 to 112 °C. Molecule `CCSC(=NC(C)=O)Nc1c(Cl)cccc1Cl` came in with a melting point of 97 to 100 °C. The same measure for `NS(=O)(=O)c1cccc(-c2noc(-c3cnn4c(C(F)(F)F)cc(-c5cccc(C(F)(F)F)c5)nc34)n2)c1`: 251 °C; for `O=C(O)c1ccc(CCCc2ccccc2Cc2ccccc2)cc1`: 135 to 136 °C; for `CS(=O)Cc1ccc2oc([N+](=O)[O-])c(-c3ccccc3)c2c1` (stereo not given): 162 to 165 °C. `O=C1N=NC(=O)c2c1[nH]c1cc(Br)cc(Br)c21` showed a melting point of over 400 °C. The same measure for `Nc1cn(-c2cccnc2)nc1Br`: 143 to 146 °C; for `COc1cc(OC)cc(N2CCN(C(=O)Nc3cc4c(nc3OC)CCC4)CC2)c1`: 143 to 144 °C. The same measure for `CCCCCCCCCCCCCCCCCC[N+](=O)[O-]`: 47 to 50 °C; for `CCOC(=O)c1cc2cc(NC(C)C)ccc2nn1`: 167 to 168 °C; for `CCOC(=O)C(=O)CC(=O)c1cn(Cc2c(F)cccc2F)c2ccccc2c1=O`: 172 to 173 °C. The same measure for `O=C1c2cc(Cl)ccc2CN2CCC(=NO)C12` (stereo not given): 130 to 136 °C; for `CCCCOc1cc(CCC(=O)O)ccc1OCCCc1cn(-c2ccc(C(F)(F)F)cn2)nc1OCC`: 92 to 93 °C. As for `CC(C)(C)OC(=O)CN1CCC(=O)N(CC(=O)OC(C)(C)C)CCC1=O`, the melting point was 180 °C.
